Assay [1] deals with P. aeruginosa strain PAO1. Conditions: 20 mM Tris–HCl, pH 7.2, 1 h, 37°C, log-phase bacteria ~10^5–10^6 CFU/ml, limit of detection 10 CFU/ml, triplicate experiments.
Assay [2] relates to S. aureus strain NRS384 (MRSA). As to the kind of experiment: Murine burn wound infection model, prophylactic. It is filed as in vivo, Staphylococcus aureus. Conditions: monotherapy: 1% (wt/vol) PaP1, or 0.02% or 0.2% (wt/vol) mupirocin, topical in diH2O, 1 h before and 2 h after infection with 10^6 CFU; female CD1 mice, third-degree burns; counts 3 h post-infection; control ~10^6 CFU/g tissue; geometric mean.

Setting [3] is: peptide 10 μg/ml, serial dilution and plating.

Like-named read-outs stand apart in the source and are kept apart here.

In the case of “NAGDYAGAAEQFLRWNKAGGKVLPGLVRRRA [PaP1-2]”, the “reduction of bacterial viability (log10-fold kill)” value (shortened to “reduction … (log10-fold kill)”) in assay [1] (setting [3]) is given as 1.2 log10-fold.

Take “NAGDYAGAAEQFLRWNKAGGKVLPGLVRRRK [PaP1-3]”: the “reduction … (log10-fold kill)” value is recorded as 2.4 log10-fold in assay [1] (peptide 5 μg/ml, plating) and “below the limit of detection” in assay [1] (setting [3]).

For `C/C(=C\C(=O)OCCCCCCCCC(=O)O)C[C@@H]1OC[C@H](C[C@@H]2O[C@H]2[C@@H](C)[C@H](C)O)[C@@H](O)[C@H]1O` [mupirocin], the “reduction of MRSA viability vs untreated control” value in assay [2] is listed as 1.1–1.2 log10-fold.

Regarding “NAGDYAGAAEQFLRWNKAGGKVLPGLVRRRASERELFLGAA [PaP1-1]”, the “reduction … (log10-fold kill)” value is listed as “ineffective” in assay [1] (peptide 5 μg/ml, plating) and “ineffective” in assay [1] (setting [3]).

Take “QYCANDRVGNLWVEAQEGRKPLRSSAKFKGGAQRRSGLA [PaP1-6]”: in assay [1] (setting [3]), the “reduction … (log10-fold kill)” value is “retains bactericidal activity”.

The record behind these values is PMC8965563, “PaP1, a Broad-Spectrum Lysin-Derived Cationic Peptide to Treat Polymicrobial Skin Infections” (Frontiers in Microbiology, 2022).
